Assay results reported in patent US9206156B2, “Substituted indole derivatives” (GRÜNENTHAL GMBH, priority 2008, dated 2015).

Experiments:
human μ-opiate receptor = target: T1, human μ-opiate receptor (Homo sapiens, UniProt P35372); assay: μ-opiate receptor binding assay with [3H] naloxone (WGA-SPA beads); settings: 1 μmol/l test substance, 1 nmol/l [3H] naloxone, CHO-K1 cell membranes expressing human μ-opiate receptor
T1 construct: purchased NEN, Zaventem, Belgium RB-HOM; host or cells: CHO-K1 cells (membrane preparation)
T1 sequence (P35372 whole entry): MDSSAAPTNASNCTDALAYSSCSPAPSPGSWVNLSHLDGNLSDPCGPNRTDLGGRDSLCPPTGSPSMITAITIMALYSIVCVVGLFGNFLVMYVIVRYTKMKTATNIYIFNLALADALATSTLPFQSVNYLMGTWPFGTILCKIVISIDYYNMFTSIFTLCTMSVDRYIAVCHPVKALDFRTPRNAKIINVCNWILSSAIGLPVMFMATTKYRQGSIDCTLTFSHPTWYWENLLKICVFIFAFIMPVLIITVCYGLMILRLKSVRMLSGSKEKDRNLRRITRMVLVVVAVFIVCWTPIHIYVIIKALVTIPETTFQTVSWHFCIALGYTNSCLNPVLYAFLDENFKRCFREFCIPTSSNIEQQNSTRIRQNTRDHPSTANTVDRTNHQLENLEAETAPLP
Summary of the method: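 CHO-K1 membranes expressing human μ-opiate receptor incubated 90 min at room temperature with 1 nmol/l [3H]naloxone and WGA-SPA beads in 50 mmol/l Tris-HCl with 0.05% azide, 0.06% BSA. Non-specific binding with 25 μmol/l naloxone; % inhibition at 1 μmol/l, or IC50 converted to Ki via Cheng-Prusoff.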

ORL1 receptor = target: T2, ORL1 receptor (Homo sapiens, UniProt P41146); assay: ORL1 receptor binding assay with 3H-nociceptin/orphanin FQ (WGA-SPA beads); settings: c=1 μM test substance; 0.5 nM 3H-nociceptin/orphanin FQ; membranes of recombinant CHO-ORL1 cells
T2 construct: expressed in transfected cells; host or cells: CHO (recombinant CHO-ORL1 cells), membranes
T2 sequence (P41146 whole entry): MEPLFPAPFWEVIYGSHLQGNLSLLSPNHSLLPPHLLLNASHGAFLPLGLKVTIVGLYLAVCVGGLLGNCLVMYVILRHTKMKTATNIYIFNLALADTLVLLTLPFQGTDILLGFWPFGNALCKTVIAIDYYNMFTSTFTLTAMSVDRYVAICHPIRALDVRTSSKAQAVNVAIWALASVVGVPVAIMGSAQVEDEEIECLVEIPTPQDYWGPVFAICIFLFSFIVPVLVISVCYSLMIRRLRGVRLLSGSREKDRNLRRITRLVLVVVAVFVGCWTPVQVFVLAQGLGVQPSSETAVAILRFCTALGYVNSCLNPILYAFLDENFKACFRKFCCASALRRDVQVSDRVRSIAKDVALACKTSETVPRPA
Summary of the method: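 Radioligand displacement on membranes from recombinant CHO-ORL1 cells, 0.5 nM 3H-nociceptin/orphanin FQ, 20 μg membrane protein per batch in 50 mM Hepes pH 7.4, 10 mM MgCl2, 1 mM EDTA. Incubated 1 h at room temperature with WGA-SPA beads, scintillation read. Reported as Ki (nM) or % inhibition at 1 μM.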

Compound	inhibition at 1 µM (human μ-opiate receptor)	inhibition at 1 µM (ORL1 receptor)	% Inhibition (μ) at 1 μM (human μ-opiate receptor; 1 µM)	% Inhibition (ORL1) at 1 μM (ORL1 receptor)	% Inhibition (μ) at 1 μM (human μ-opiate receptor)
CN(CCCN1CCC(c2ccccc2)(N(C)C)CC1)C(=O)Cc1c[nH]c2ccc(Br)cc12 [Example 63, 2-(5-Bromo-1H-indol-3-yl)-N-(3-(4-(dimethylamino)-4-phenylpiperidin-1-yl)propyl)-N-methylacetamide]	81%	41%	–	–	–
CN(C)C1(c2cccs2)CCN(C(=O)CC(NCc2ccc3[nH]ccc3c2)c2ccccc2)CC1 (centres unmarked) [Example 165, 3-((1H-indol-5-yl)methylamino)-1-(4-(dimethylamino)-4-(thiophen-2-yl)piperidin-1-yl)-3-phenylpropan-1-one]	92%	47%	–	–	–
Cc1[nH]c2ccccc2c1CNC(CC(=O)N1CCC(c2cccs2)(N(C)C)CC1)c1ccccc1 (centres unmarked) [Example 168, 1-(4-(dimethylamino)-4-(thiophen-2-yl)piperidin-1-yl)-3-((2-methyl-1H-indol-3-yl)methylamino)-3-phenylpropan-1-one]	92%	73%	–	–	–
CC(C)C(CC(=O)N(C)CCN1CCC(c2ccccc2)(N(C)C)CC1)c1c[nH]c2ccccc12 (centres unmarked) [Example 87, N-(2-(4-(dimethylamino)-4-phenylpiperidin-1-yl)ethyl)-3-(1H-indol-3-yl)-N,4-dimethylpentanamide]	–	–	102%	93%	–
CN(C)C1(c2ccccc2)CCN(C(=O)C2CCCN(C(=O)Cc3c[nH]c4cc(F)ccc34)C2)CC1 (centres unmarked) [Example 124, 1-(3-(4-(dimethylamino)-4-phenylpiperidine-1-carbonyl)piperidin-1-yl)-2-(6-fluoro-1H-indol-3-yl)ethanone]	64%	43%	–	–	–
CN(C)C1(c2ccccc2)CCN(C(=O)C2CCCN(C(=O)CCc3c[nH]c4ccccc34)C2)CC1 (centres unmarked) [Example 123, 1-(3-(4-(dimethylamino)-4-phenylpiperidine-1-carbonyl)piperidin-1-yl)-3-(1H-indol-3-yl)propan-1-one]	72%	43%	–	–	–
CN(C)c1ccc2cc(C(=O)N3CCCC(C(=O)N4CCC(c5ccccc5)(N(C)C)CC4)C3)[nH]c2c1 (centres unmarked) [Example 136, (6-(dimethylamino)-1H-indol-2-yl)(3-(4-(dimethylamino)-4-phenylpiperidine-1-carbonyl)piperidin-1-yl)methanone]	46%	24%	–	–	–
CN(C)C1(c2ccccc2)CCN(C(=O)C2CCCN(C(=O)c3cc4cc(F)ccc4[nH]3)C2)CC1 (centres unmarked) [Example 104, (4-(dimethylamino)-4-phenylpiperidin-1-yl)(1-(5-fluoro-1H-indole-2-carbonyl)piperidin-3-yl)methanone]	89%	64%	–	–	–
CN(CCN1CCC(c2ccccc2)(N(C)C)CC1)C(=O)Cc1c[nH]c2cc(F)ccc12 [Example 27, N-(2-(4-(Dimethylamino)-4-phenylpiperidin-1-yl)ethyl)-2-(6-fluoro-1H-indol-3-yl)-N-methylacetamide]	98%	93%	–	–	–
CN(CCN1CCC(c2ccccc2)(N(C)C)CC1)C(=O)Cc1c[nH]c2cc(F)ccc12 [Example 90, N-(2-(4-(dimethylamino)-4-phenylpiperidin-1-yl)ethyl)-2-(6-fluoro-1H-indol-3-yl)-N-methylacetamide]	–	–	99%	90%	–
CN(CCCN1CCC(c2cccs2)(N(C)C)CC1)C(=O)c1cccc2c1ccn2C [Example 30, N-(3-(4-(Dimethylamino)-4-(thiophen-2-yl)piperidin-1-yl)propyl)-N,1-dimethyl-1H-indole-4-carboxamide]	78%	21%	–	–	–
CN(C)C1(c2ccccc2)CCN(C(=O)CCNC(=O)C2CCCc3c2[nH]c2ccc(Cl)cc32)CC1 (centres unmarked) [Example 107, 6-chloro-N-(3-(4-(dimethylamino)-4-phenylpiperidin-1-yl)-3-oxopropyl)-2,3,4,9-tetrahydro-1H-carbazole-1-carboxamide]	52%	63%	–	–	–
CC(C)C(C(=O)N1CCC(c2ccccc2)(N(C)C)CC1)N(C)C(=O)Cc1c[nH]c2cc(F)ccc12 (centres unmarked) [Example 82, N-(1-(4-(dimethylamino)-4-phenylpiperidin-1-yl)-3-methyl-1-oxobutan-2-yl)-2-(6-fluoro-1H-indol-3-yl)-N-methylacetamide]	97%	97%	–	–	–
CN(CCN1CCC(c2ccccc2)(N2CCCC2)CC1)C(=O)Cc1c[nH]c2cc(F)ccc12 [Example 36, 2-(6-Fluoro-1H-indol-3-yl)-N-methyl-N-(2-(4-phenyl-4-(pyrrolidin-1-yl)piperidin-1-yl)ethyl)acetamide]	62%	31%	–	–	–
CCCCC1(N(C)C)CCN(CCN(C)C(=O)CCc2c[nH]c3ccccc23)CC1 [Example 60, N-(2-(4-Butyl-4-(dimethylamino)piperidin-1-yl)ethyl)-3-(1H-indol-3-yl)-N-methylpropanamide]	81%	45%	–	–	–
Cc1c(CN(C)CCN2CCC(c3ccccc3)(N(C)C)CC2)c2ccccc2n1C [Example 79, 1-(2-(((1,2-Dimethyl-1H-indol-3-yl)methyl)(methyl)amino)ethyl)-N,N-dimethyl-4-phenylpiperidin-4-amine]	–	–	101%	83%	–
CN(CCCN1CCC(c2cccs2)(N(C)C)CC1)C(=O)CCc1cn(C)c2ccccc12 [Example 13, N-(3-(4-(Dimethylamino)-4-(thiophen-2-yl)piperidin-1-yl)propyl)-N-methyl-3-(1-methyl-1H-indol-3-yl)propanamide]	80%	35%	–	–	–
CC(C)C(C(=O)N1CCC(c2ccccc2)(N(C)C)CC1)N(C)Cc1ccc2[nH]ccc2c1 (centres unmarked) [Example 146, 2-(((1H-indol-5-yl)methyl)(methyl)amino)-1-(4-(dimethylamino)-4-phenylpiperidin-1-yl)-3-methylbutan-1-one]	53%	24%	–	–	–
CN(C)C1(c2cccs2)CCN(CCNCc2c[nH]c3ccc(Cl)cc23)CC1 [Example 72, 1-(2-((5-Chloro-1H-indol-3-yl)methylamino)ethyl)-N,N-dimethyl-4-(thiophen-2-yl)piperidin-4-amine]	–	–	101%	95%	–
CC(C)C(CC(=O)N(C)CCCN1CCC(c2cccs2)(N(C)C)CC1)c1c[nH]c2ccccc12 (centres unmarked) [Example 23, N-(3-(4-(Dimethylamino)-4-(thiophen-2-yl)piperidin-1-yl)propyl)-3-(1H-indol-3-yl)-N,4-dimethylpentanamide]	86%	53%	–	–	–
COc1ccc2c(c1)c(CN(C)CCN1CCC(c3ccccc3)(N(C)C)CC1)c(C)n2Cc1ccccc1 [Example 193, 1-(2-(((1-benzyl-5-methoxy-2-methyl-1H-indol-3-yl)methyl)(methyl)amino)ethyl)-N,N-dimethyl-4-phenylpiperidin-4-amine]	82%	68%	–	–	–
CC(C)c1ccc2c(CN(C)CCN3CCC(c4ccccc4)(N(C)C)CC3)c[nH]c2c1 [Example 73, 1-(2-(((6-Isopropyl-1H-indol-3-yl)methyl)(methyl)amino)ethyl)-N,N-dimethyl-4-phenylpiperidin-4-amine]	–	–	–	95%	95%
CN(C)C1(c2ccccc2)CCN(C(=O)C2CCCN(Cc3ccc4cc[nH]c4c3)C2)CC1 (centres unmarked) [Example 152, (1-((1H-indol-6-yl)methyl)piperidin-3-yl)(4-(dimethylamino)-4-phenylpiperidin-1-yl)methanone]	93%	80%	–	–	–
COc1ccc2[nH]cc(CN(C)CCN3CCC(c4ccccc4)(N(C)C)CC3)c2c1 [Example 191, 1-(2-(((5-methoxy-1H-indol-3-yl)methyl)(methyl)amino)ethyl)-N,N-dimethyl-4-phenylpiperidin-4-amine]	–	–	96%	80%	–
CC(CC(=O)N(C)CCCN1CCC(c2ccccc2)(N(C)C)CC1)c1c[nH]c2ccccc12 (centres unmarked) [Example 59, N-(3-(4-(Dimethylamino)-4-phenylpiperidin-1-yl)propyl)-3-(1H-indol-3-yl)-N-methylbutanamide]	86%	60%	–	–	–
CN(CCCN1CCC(c2cccs2)(N(C)C)CC1)C(=O)c1ccc2ccn(C)c2c1 [Example 28, N-(3-(4-(Dimethylamino)-4-(thiophen-2-yl)piperidin-1-yl)propyl)-N,1-dimethyl-1H-indole-6-carboxamide]	88%	36%	–	–	–
CN(CCN1CCC(c2ccccc2)(N(C)C)CC1)Cc1cccc2[nH]ccc12 [Example 195, 1-(2-(((1H-indol-4-yl)methyl)(methy)amino)ethyl)-N,N-dimethyl-4-phenylpiperidin-4-amine]	–	–	78%	56%	–
CC(C)C(C(=O)N1CCC(c2ccccc2)(N(C)C)CC1)N(C)C(=O)CCc1c[nH]c2ccccc12 (centres unmarked) [Example 94, N-(1-(4-(dimethylamino)-4-phenylpiperidin-1-yl)-3-methyl-1-oxobutan-2-yl)-3-(1H-indol-3-yl)-N-methylpropanamide]	71%	82%	–	–	–
